Measurements reported in PMC10009108, “Design, synthesis and screening of indole acetic acid-based tri-azo moieties as antioxidants, anti-microbial and cytotoxic agents” (Frontiers in Pharmacology, 2023).
In brackets after ≈: the same amount, converted by molar mass.

Columns and labels:
[1] = Total antioxidant capacity (TAC assay); conditions: rank among the synthetic compounds
Method: This evaluation was based on the protocol by ([Bibi et al., 2011]). This mechanism’s key point is reducing Mo (VI) to Mo (V). A solution consisting of 4 mM Ammonium molybdate, 28 mM SodiumPhosphate, and 0.6 M Sulphuric acid is utilized, which forms Phosphate Molybdenum Complex which is green in color and gives absorption = […]. […] of the sample is added to […] of reagent, which is incubated at 95°C for one and a half hours and cooled to 25°C.
The antioxidant potential of test compounds was estimated by TAC &TRP assays. The spectrophotometric method was used to analyze the formation of the green-colored phosphomolibdenum compound. […] The findings are depicted in Figure 6.

[2] = test system: Bacillus subtilis (ATCC-6633); experiment: Antibacterial assay, micro broth dilution; assay type: cell-based; design: key to Antibacterial activity, Bacillus subtilis: Activity: Active = Bacterial activity; --- = no activity; conditions: 25 μg/mL
Source text: (§1) The micro broth dilution method was used to establish the antibacterial potential of test samples against Staphylococcus aureus (ATCC-6538), Bacillus subtilis (ATCC-6633), Escherichia coli (ATCC-25922), Klebsiella pneumoniae (ATCC-1705), and Pseudomonas aeruginosa (ATCC-15442) and for the resistant strains of MRSA Staphylococcus aureus, P. aeruginosa and Escherichia coli. The procedure used is described by ([Sarker et al., 2007]). Bacterial inoculum was formed under aseptic conditions keeping the density near 5 × 10^4 CFU/mL in pre-autoclaved nutrient broth. Test samples of an aliquot of 5 µL were shifted to labeled wells of 96 well plates, and after that addition of 195 µL of nutrient broth; was accomplished. After that, a 2-fold serial dilution of every sample was arranged to get final concentrations of 12.5 μg/mL. Then, with the help of a micropipette, 195 µL of bacterial culture of respective strains was poured into each well; further advancement was incubating of plates for 30 min at the temperature of 37°C. […] Incubation of plates was again carried out at 37°C for 1 day, absorbance was noted, and net change in turbidity was the difference between two values of absorbance.
(§2) Schiff base tri-azo compounds were investigated for antibacterial potential. […] 6.25 μg/mL for 5b and 5g, and the least, Table 4 3.12 μg/mL was for 5f. […] Substituents with electron-withdrawing attributes, e.g., -NO2, -Cl, -OH on the aromatic ring, assert a great impact on the antibacterial activity of synthetic compounds. It is also observed that an increase in the number of -OH groups tend to enhance the activity ([Hosamani and Shingalapur, 2011]). Due to the difference in cell-wall composition of Gram + ve and -ve bacteria, different compounds show different features towards the same micro-organism ([Goszczyn’ska et al., 2015]).

[3] = test system: Pseudomonas aeruginosa (ATCC-15442); experiment: Antibacterial assay, micro broth dilution; assay type: cell-based; conditions: ATCC15442
Source text: as §1, §2

[4] = DPPH free radical scavenging assay; conditions: at 50 μg/mL
Method: The DPPH assay was executed via the technique stated by ([Bibi et al., 2011]). DPPH(Diphenyl-1-picrylhydrazyl), a free radical, is bagged to inquire about the antioxidant ability of the synthesized compounds. 10 μL from the synthesized compound (1 mg/mL DMSO) is added to 190 μL DPPH solution., making up the final conc. of 50 μg/mL.
DPPH assay was repeated in triplicate using DMSO as -ve and ascorbic acid as + ve control; findings are expressed as means standard deviation.
It is one of the very commonly utilized methods for the assessment of the antioxidant ability of compounds. DPPH turns from purple to yellow, which indicates the synthetic compound’s scavenging potential ([Rahman et al., 2017]). DMSO and A.A. were used as -ve and +ve control. The antioxidant potential of compounds was assessed at 50 μg/mL, 25 μg/mL, 12.5 μg/mL, and 6.25 μg/mL. […] Production of free radicals is an outcome of regular oxygen consumption in the body; whenever something is missing with the natural antioxidant mechanism, the accumulation of these free radicals may lead to cytotoxic interaction with the body systems and may cause damage to genomic content of various cells, and proteins in the body ([Barbuceanu et al., 2014]). Free radical accumulation is also associated with different diseases, e.g., coronary heart disease, neuronic disorders, diabetes, necrosis, and various tumors ([Ismaili.et al., 2008]). The antioxidant potential of the compound depends upon its reducing power; the introduction of hydroxy and methoxy groups on the Benzene ring led to better reducing power or promising antioxidant activity ([Rakesh et al., 2015]).

[5] = test system: Escherichia coli (ATCC-25922); experiment: Antibacterial assay, micro broth dilution; assay type: cell-based; conditions: ATCC25922, read-out: E. coli MIC
Source text: as §1, §2

[6] = test system: Staphylococcus aureus (ATCC-6538); experiment: Antibacterial assay, micro broth dilution; assay type: cell-based; conditions: ATCC6538, read-out: S. aureus MIC
Source text: as §1, §2

Row | Structure (SMILES) | activity in the TAC assay (in words) [1] | Antibacterial activity, Bacillus subtilis: Activity [2] | MIC [3] | %DPPH inhibition (% free radical scavenging) [4] | MIC [5] | MIC [6]
1 | COc1cccc(C=Nn2c(Cc3c[nH]c4ccccc34)n[nH]c2=S)c1 [Compound 5b] | maximum activity | --- | 12.5 µg/mL (≈ 34.4 µM) | 32% |  | 
2 | S=c1[nH]nc(Cc2c[nH]c3ccccc23)n1N=Cc1ccc(Cl)cc1 [Compound 5c] |  |  |  | 11.1% | 25 µg/mL (≈ 68 µM) | 
3 | COc1cc(C=Nn2c(Cc3c[nH]c4ccccc34)n[nH]c2=S)cc(OC)c1OC [Compound 5g] |  | --- |  |  |  | 25 µg/mL (≈ 59 µM)
4 | Oc1cccc(C=Nn2c(Cc3c[nH]c4ccccc34)n[nH]c2=S)c1 [Compound 5a] |  |  | 12.5 µg/mL (≈ 35.8 µM) |  |  | 
5 | O=[N+]([O-])c1ccc(C=Nn2c(Cc3c[nH]c4ccccc34)n[nH]c2=S)cc1 [Compound 5d] |  |  |  | 11.1% | 25 µg/mL (≈ 66.1 µM) | 
6 | Oc1ccc(C=Nn2c(Cc3c[nH]c4ccccc34)n[nH]c2=S)cc1 [Compound 5e] |  | --- | 3.12 µg/mL (≈ 8.93 µM) | 8.3% | 25 µg/mL (≈ 71.5 µM) | 
7 | S=c1[nH]nc(Cc2c[nH]c3ccccc23)n1N=Cc1cccc(Cl)c1 [Compound 5f] |  | --- |  |  |  | 25 µg/mL (≈ 68 µM)
